The results in this text go back to patent publication US20140107109A1, “AMINO-DIHYDROTHIAZINE AND AMINO-DIOXIDO DIHYDROTHIAZINE COMPOUNDS AS BETA-SECRETASE ANTAGONISTS AND METHODS OF USE” (Amgen Inc., priority 2012, published 2014).

Read-outs that look alike come from different tables or passages of the source.

One assay addresses T1, Cathepsin D (Cat D) (Homo sapiens, UniProt P07339).
T1 construct: Recombinant Cat D was expressed in CHO cells; made in house; host or cells: CHO cells
Kind of assay: In vitro enzymatic Cathepsin D (Cat D) FRET assay. It is filed as biochemical. The settings on record: read-out: CatD IC50. In short, it runs like this:
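Recombinant Cat D expressed in CHO cells, used at 9 nM and pre-incubated one hour with serially diluted inhibitor in DMSO. Peptide substrate carries a fluorophore and quencher flanking the cleavage site; reaction stopped with Tris buffer raising pH to neutrality, then fluorescence read.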

The subject of assay [1] is Aβ40 in conditioned medium of cells stably expressing Amyloid Precursor Protein (APP). Kind of assay: In vitro BACE cell-based assay (HEK cell assay), Aβ40 sandwich ELISA. In a few lines: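 APP-stably expressing cells (40K/well, grown 24 h in DMEM/10% FBS) were treated 24 h with compounds in 10-point dose response starting at 100 μM or 10 μM, 0.1% DMSO final. Secreted Aβ40 was measured by sandwich ELISA (pAb40 capture, biotinylated 6E10 detection, europium time-resolved fluorescence); IC50 from percent inhibition.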
(In general: In an ELISA, binding on a coated surface is turned into a signal by an enzyme label.)

Assay [2] deals with Beta Secretase enzyme (BACE1) (Homo sapiens, UniProt P56817). Kind of assay: In vitro enzymatic BACE FRET assay. The following applies: read-out: BACE1 FRET assay IC50. Type of assay: biochemical. In short, it runs like this:
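BACE1 cleavage of a 50 nM fluorophore/quencher peptide FRET substrate ran for one hour in 0.05 M acetate pH 4.2, 10% DMSO, 100 uM genapol. Tris buffer raised pH to neutrality to stop the reaction before fluorescence was read (excitation 488 nm, […]).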

Setting [3] is: Homo sapiens, HEK293, average IC50, cell assay.
The mark [4] stands for this setting: Homo sapiens, HEK293, Aβ40, 24 h incubation.
The mark [5] stands for this setting: Homo sapiens, HEK293, average IC50, HEK cell assay.

T1 sequence (P07339 65-412, species assumed): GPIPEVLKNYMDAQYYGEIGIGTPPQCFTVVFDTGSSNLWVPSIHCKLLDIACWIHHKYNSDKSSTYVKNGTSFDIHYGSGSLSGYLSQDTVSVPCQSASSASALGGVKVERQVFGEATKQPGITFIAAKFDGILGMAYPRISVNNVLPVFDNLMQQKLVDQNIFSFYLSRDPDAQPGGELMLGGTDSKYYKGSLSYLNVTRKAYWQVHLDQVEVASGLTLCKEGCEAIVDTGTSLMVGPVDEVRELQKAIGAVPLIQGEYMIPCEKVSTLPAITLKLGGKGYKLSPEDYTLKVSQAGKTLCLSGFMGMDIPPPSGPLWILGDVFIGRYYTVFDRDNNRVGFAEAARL
Sequence of Beta Secretase enzyme (BACE1) (P56817 46-501): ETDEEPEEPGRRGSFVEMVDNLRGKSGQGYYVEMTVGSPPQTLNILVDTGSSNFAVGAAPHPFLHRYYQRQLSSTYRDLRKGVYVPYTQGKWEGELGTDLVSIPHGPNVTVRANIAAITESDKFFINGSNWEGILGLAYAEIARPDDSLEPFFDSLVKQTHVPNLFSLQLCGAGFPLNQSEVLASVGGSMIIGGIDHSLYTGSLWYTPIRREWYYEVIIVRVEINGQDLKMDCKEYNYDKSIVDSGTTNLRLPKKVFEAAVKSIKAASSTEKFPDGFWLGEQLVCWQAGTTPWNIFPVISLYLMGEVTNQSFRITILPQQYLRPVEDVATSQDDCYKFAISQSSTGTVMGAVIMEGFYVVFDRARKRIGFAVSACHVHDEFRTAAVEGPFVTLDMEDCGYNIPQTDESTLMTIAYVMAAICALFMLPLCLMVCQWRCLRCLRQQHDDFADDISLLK

For the compound `Cc1nc2c(Nc3ccc(F)c([C@]4(C)CS(=O)(=O)C(C)(C)C(N)=N4)c3)cccc2s1` [Example 105, (R)-5-amino-3-(2-fluoro-5-((2-methylbenzo[d]thiazol-4-yl)amino)phenyl)-3,6,6-trimethyl-3,6-dihydro-2H-1,4-thiazine 1,1-dioxide], the IC50 amounted to 145 µM at Cathepsin D (Cat D); 0.742 µM in assay [1] (setting [3]); 0.184 µM in assay [2] (average IC50, enzyme assay).
Regarding `CC1(C)C(N)=N[C@](CF)(c2cc(NC(=O)c3ncc(Cl)nc3Cl)ccc2F)CS1(=O)=O` [Example 380, N-(3-((3S)-5-amino-3-(fluoromethyl)-6,6-dimethyl-1,1-dioxido-3,6-dihydro-2H-1,4-thiazin-3-yl)-4-fluorophenyl)-3,5-dichloro-2-pyrazinecarboxamide], the IC50 came to 282 µM at Cathepsin D (Cat D); 0.999 µM in assay [1] (Homo sapiens, HEK293); 0.0018 µM in assay [2].
“N-(3-((4aR,7aR)-3-amino-2,2-dimethyl-1,1-dioxido-7,7a-dihydro-2H-furo[3,4-b][1,4]thiazin-4a(5H)-yl)-4-fluorophenyl)-5-(difluoromethoxy)-3-methyl-2-pyridinecarboxamide, N-(3-((4aS,7aS)-3-amino-2,2-dimethyl-1,1-dioxido-7,7a-dihydro-2H-furo[3,4-b][1,4]thiazin-4a(5H)-yl)-4-fluorophenyl)-5-(difluoromethoxy)-3-methyl-2-pyridinecarboxamide [Example 413]”: the figures for the concentration for half-maximal inhibition (IC50) (on Cathepsin D (Cat D); in assay [1]; in assay [2]) were 111 µM, 0.0103 µM and 0.00265 µM, respectively.
With `CC1(C)C(N)=N[C@](CF)(c2cc(Nc3ncc(F)c4cc(OCC(F)(F)F)cnc34)ccc2F)CS1(=O)=O` [Example 432, N-(3-((3S)-5-amino-3-(fluoromethyl)-6,6-dimethyl-1,1-dioxido-3,6-dihydro-2H-1,4-thiazin-3-yl)-4-fluorophenyl)-5-fluoro-3-(2,2,2-trifluoroethoxy)-1,7-naphthyridin-8-amine], the IC50 on Cathepsin D (Cat D) amounted to 312 µM; in assay [1] (setting [3]) it was 0.187 µM; in assay [2] (average IC50, enzyme assay), 0.00247 µM.
For `Cc1nc(F)c([C@]2(C)CS(=O)(=O)C(C)(C)C(N)=N2)cc1NC(=O)c1ccc(Cl)cn1` [Example 397, N-(5-((3R)-5-amino-3,6,6-trimethyl-1,1-dioxido-3,6-dihydro-2H-1,4-thiazin-3-yl)-6-fluoro-2-methyl-3-pyridinyl)-5-chloro-2-pyridinecarboxamide], the IC50 on Cathepsin D (Cat D) is 523 µM; in assay [1] (Homo sapiens, HEK293), 3.25 µM; in assay [2], 3.04 µM.
With `CC1(C)C(N)=N[C@](C)(c2cc(Oc3ccc(C#N)cc3)ccc2F)CS1(=O)=O` [Example 96, (R)-4-(3-(5-amino-3,6,6-trimethyl-1,1-dioxido-3,6-dihydro-2H-1,4-thiazin-3-yl)-4-fluorophenoxy)benzonitrile], the IC50 at Cathepsin D (Cat D) was found to be 58.7 µM; in assay [1] (setting [4]), 6.02 µM; in assay [2], 1.8 µM.
Take `CC1(C)C(N)=N[C@](C)(c2cc(NC(=O)c3ccc(F)cn3)ccc2F)CS1(=O)=O` [Example 18, N-(3-((3R)-5-amino-3,6,6-trimethyl-1,1-dioxido-3,6-dihydro-2H-1,4-thiazin-3-yl)-4-fluorophenyl)-5-fluoro-2-pyridinecarboxamide]: the IC50 at Cathepsin D (Cat D) was over 400 µM; in assay [1] (setting [4]) it was 0.0037 µM; in assay [2], 0.0019 µM.
On to `CC1(C)C(N)=N[C@](C)(c2cc(Nc3nccc4cc(OCCF)cnc34)ccc2F)CS1(=O)=O` [Example 421, N-(3-((3R)-5-amino-3,6,6-trimethyl-1,1-dioxido-3,6-dihydro-2H-1,4-thiazin-3-yl)-4-fluorophenyl)-3-(2-fluoroethoxy)-1,7-naphthyridin-8-amine], for which the IC50 turned out to be 1450 µM at Cathepsin D (Cat D); 0.0115 µM in assay [1] (setting [3]); 0.031 µM in assay [2] (average IC50, enzyme assay).
Consider `Cc1cc(Cl)cnc1C(=O)Nc1ccc(F)c([C@]2(CF)CS(=O)(=O)C(C)(C)C(N)=N2)c1` [Example 408, N-(3-((3S)-5-amino-3-(fluoromethyl)-6,6-dimethyl-1,1-dioxido-3,6-dihydro-2H-1,4-thiazin-3-yl)-4-fluorophenyl)-5-chloro-3-methyl-2-pyridinecarboxamide], for which the IC50 on Cathepsin D (Cat D) is 136 µM; in assay [1] (Homo sapiens, HEK293), 0.0232 µM; in assay [2], 0.0004 µM.
Consider `C[C@]1(F)C(N)=N[C@](C)(c2cc(Nc3ncc(F)c4cc(Cl)cnc34)ccc2F)CS1(=O)=O` [Example 178, (3R,6R)-5-Amino-3-(5-((3-chloro-5-fluoro-1,7-naphthyridin-8-yl)amino)-2-fluorophenyl)-6-fluoro-3,6-dimethyl-3,6-dihydro-2H-1,4-thiazine 1,1-dioxide], for which the IC50 at Cathepsin D (Cat D) was 32.1 µM; in assay [1] (Homo sapiens, HEK293, average IC50, HEK cells), 0.379 µM; in assay [2] (average IC50) it was 0.00038 µM.
As for `C[C@]1(F)C(N)=N[C@](C)(c2cc(Nc3ncnc4cc(Cl)cnc34)ccc2F)CS1(=O)=O` [Example 175, (3R,6R)-5-Amino-3-((5-(7-chloropyrido[3,2-d]pyrimidin-4-yl)amino)-2-fluorophenyl)-6-fluoro-3,6-dimethyl-3,6-dihydro-2H-1,4-thiazine 1,1-dioxide], the IC50 was 75.8 µM on Cathepsin D (Cat D); 0.103 µM in assay [1] (setting [3]); 0.00388 µM in assay [2] (average IC50, enzyme assay).
In the case of `CC1(C)C(N)=N[C@](CF)(c2cc(NC(=O)c3ccc(F)cn3)ccc2F)CS1(=O)=O` [Example 363, N-(3-((3S)-5-amino-3-(fluoromethyl)-6,6-dimethyl-1,1-dioxido-3,6-dihydro-2H-1,4-thiazin-3-yl)-4-fluorophenyl)-5-fluoro-2-pyridinecarboxamide], the IC50 is over 400 µM at Cathepsin D (Cat D); 0.0456 µM in assay [1] (setting [5]); 0.0017 µM in assay [2] (average IC50, enzyme assay).
On to `CC1(C)C(N)=N[C@@]2(c3cc(Nc4nccc5[nH]c(=O)cnc45)ccc3F)COC[C@H]2S1(=O)=O` [Example 249, 5-((3-((4aS,7aS)-3-amino-2,2-dimethyl-1,1-dioxido-7,7a-dihydro-2H-furo[3,4-b][1,4]thiazin-4a(5H)-yl)-4-fluorophenyl)amino)pyrido[3,4-b]pyrazin-2(1H)-one], for which the IC50 worked out at 102 µM at Cathepsin D (Cat D); 0.153 µM in assay [1] (setting [3]); 0.00636 µM in assay [2] (average IC50, enzyme assay).
`CC1(C)C(N)=N[C@](C)(c2cc(NC(=O)c3ccc(Cl)cn3)c[nH]c2=O)CS1(=O)=O` [Example 452, N-(5-((3R)-5-amino-3,6,6-trimethyl-1,1-dioxido-3,6-dihydro-2H-1,4-thiazin-3-yl)-6-oxo-1,6-dihydro-3-pyridinyl)-5-chloro-2-pyridinecarboxamide]: the IC50 worked out at 1870 µM on Cathepsin D (Cat D); 0.0159 µM in assay [1] (setting [3]); 0.00704 µM in assay [2] (average IC50, enzyme assay).
Regarding `CC1(C)C(N)=N[C@@](C)(c2cc(Nc3nccc4nc(O)cnc34)cc(F)c2F)CS1(=O)=O` [Example 72, (S)-5-Amino-3-(2,3-difluoro-5-((2-hydroxypyrido[3,4-b]pyrazin-5-yl)amino)phenyl)-3,6,6-trimethyl-3,6-dihydro-2H-1,4-thiazine 1,1-dioxide], the values for the IC50 (on Cathepsin D (Cat D); in assay [1] (setting [4]); in assay [2]) were 175 µM, 5.35 µM and 0.505 µM, respectively.
Consider “N-(3-((4aR,7aS)-3-amino-2,2-dimethyl-1,1-dioxido-7,7a-dihydro-2H-furo[3,4-b][1,4]thiazin-4a(5H)-yl)-4-fluorophenyl)-5-chloro-3-methyl-2-pyridinecarboxamide, N-(3-((4aS,7aR)-3-amino-2,2-dimethyl-1,1-dioxido-7,7a-dihydro-2H-furo[3,4-b][1,4]thiazin-4a(5H)-yl)-4-fluorophenyl)-5-chloro-3-methyl-2-pyridinecarboxamide [Example 427]”, for which the 50% inhibitory concentration (IC50) was found to be 220 µM at Cathepsin D (Cat D); 0.033 µM in assay [1] (average IC50, cell assay); 0.001 µM in assay [2] (average IC50, enzyme assay).
`COCc1cc(Cl)cnc1C(=O)Nc1ccc(F)c([C@]2(C)CS(=O)(=O)[C@@](C)(F)C(N)=N2)c1` [Example 328, N-(3-((3R,6R)-5-amino-6-fluoro-3,6-dimethyl-1,1-dioxido-3,6-dihydro-2H-1,4-thiazin-3-yl)-4-fluorophenyl)-5-chloro-3-(methoxymethyl)-2-pyridinecarboxamide]: the IC50 on Cathepsin D (Cat D) is 598 µM; in assay [1] (setting [5]) it was 0.0928 µM; in assay [2] (average IC50, enzyme assay) it was 0.00051 µM.
In the case of `NC1=N[C@](CF)(c2cc(Nc3nccc4cc(Cl)cnc34)ccc2F)CS(=O)(=O)C12CCC2` [Example 245, N-(3-((7S)-9-amino-7-(fluoromethyl)-5,5-dioxido-5-thia-8-azaspiro[3.5]non-8-en-7-yl)-4-fluorophenyl)-3-chloro-1,7-naphthyridin-8-amine], the IC50 stood at 290 µM at Cathepsin D (Cat D); 0.0465 µM in assay [1] (setting [3]); 0.00056 µM in assay [2] (average IC50, enzyme assay).
Take `COc1cnc(C(=O)Nc2ccc(F)c([C@@]3(C)N=C(N)C4(CCC4)S(=O)(=O)[C@@H]3F)c2)c(C)c1` [Example 137, N-(3-((6S,7R)-9-amino-6-fluoro-7-methyl-5,5-dioxido-5-thia-8-azaspiro[3.5]non-8-en-7-yl)-4-fluorophenyl)-5-methoxy-3-methylpicolinamide]: the IC50 is 81.3 µM at Cathepsin D (Cat D); 0.0064 µM in assay [1] (Homo sapiens, HEK293); 0.00363 µM in assay [2].

Usually IC50 stands for the concentration at which inhibition is half-maximal.
